Source: PubChem BioAssay AID1963832 (Molecular Pharmacology Branch, DTP, NCI, 2024)

System: 885724-159-R-J1-PDC complex spheroid viability
Assay: Anticancer human tumor 885724-159-R-J1-PDC patient-derived pancreatic adenocarcinoma cell line growth inhibition [POLQ]
Conditions: for IC50: curve of first compound; for viability, T/C: stronger effect = lower value
In short: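 Complex spheroid viability model combining PDC tumour cells with endothelial (HUVEC) and MSC stromal cells. Novobiocin, ART-558 or RP6685 were tested singly and in combination with standard and investigational anticancer drugs. Each was titrated in half-log steps from near clinical Cmax, or from 10 microM where Cmax was unknown.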

[1] = second compound 0.0316 µM, first compound 0.0316 µM
[2] = second compound 0.0316 µM, first compound 0.1 µM
[3] = second compound 0.0316 µM, first compound 0.316 µM
[4] = second compound 0.0316 µM, first compound 1 µM
[5] = second compound 0.0316 µM, first compound 3.16 µM
[6] = second compound 0.0316 µM, first compound 10 µM
[7] = second compound 0.1 µM, first compound 0.0316 µM
[8] = second compound 0.1 µM, first compound 0.1 µM
[9] = second compound 0.1 µM, first compound 0.316 µM
[10] = second compound 0.1 µM, first compound 1 µM
[11] = second compound 0.1 µM, first compound 3.16 µM
[12] = second compound 0.1 µM, first compound 10 µM
[13] = second compound 0.316 µM, first compound 0.0316 µM
[14] = second compound 0.316 µM, first compound 0.1 µM
[15] = second compound 0.316 µM, first compound 0.316 µM
[16] = second compound 0.316 µM, first compound 1 µM
[17] = second compound 0.316 µM, first compound 3.16 µM
[18] = second compound 0.316 µM, first compound 10 µM
[19] = second compound 1 µM, first compound 0.0316 µM
[20] = second compound 1 µM, first compound 0.1 µM
[21] = second compound 1 µM, first compound 0.316 µM
[22] = second compound 1 µM, first compound 1 µM
[23] = second compound 1 µM, first compound 3.16 µM
[24] = second compound 1 µM, first compound 10 µM
[25] = second compound 3.16 µM, first compound 0.0316 µM
[26] = second compound 3.16 µM, first compound 0.1 µM
[27] = second compound 3.16 µM, first compound 0.316 µM
[28] = second compound 3.16 µM, first compound 1 µM
[29] = second compound 3.16 µM, first compound 3.16 µM
[30] = second compound 3.16 µM, first compound 10 µM
[31] = second compound 10 µM, first compound 0.0316 µM
[32] = second compound 10 µM, first compound 0.1 µM
[33] = second compound 10 µM, first compound 0.316 µM
[34] = second compound 10 µM, first compound 1 µM
[35] = second compound 10 µM, first compound 3.16 µM
[36] = second compound 10 µM, first compound 10 µM
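Also: spheroids exposed to compounds for 7 days.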

In the case of CC1COCCN1c1cc(C2(O)CC3CCC(C2)O3)c2cnn(-c3ccn[nH]3)c2n1 (stereo unspecified) + Cc1cccc(N(C)C(=O)C2C(O)CCN2c2nc(C)cc(C(F)(F)F)c2C#N)c1, the IC50 (second compound 0.0316 µM) is reported as 142 nM, the IC50 (second compound 0.1 µM) is reported as 243 nM and the IC50 (second compound 0.316 µM) is reported as 151 nM. The IC50 (second compound 1 µM) was 188 nM, the IC50 (second compound 3.16 µM) was 302 nM and the IC50 (second compound 10 µM) was 225 nM. It also gave a viability, T/C [1] of 74.4%, a viability, T/C [2] of 51.4% and a viability, T/C [3] of 41.6%. The viability, T/C [4] was 39.6%, the viability, T/C [5] was 35.4% and the viability, T/C [6] was 28.5%. For the same compound, the viability, T/C [7] was 72%, the viability, T/C [8] was 58.1% and the viability, T/C [9] was 47.6%. The viability, T/C [10] was 39.3%, the viability, T/C [11] was 35.4% and the viability, T/C [12] was 30.8%. The viability, T/C [13] was 70.4%, the viability, T/C [14] was 46.9% and the viability, T/C [15] was 47.2%. For the same compound, the viability, T/C [16] was 41%, the viability, T/C [17] was 35.3% and the viability, T/C [18] was 28.8%. It also gave a viability, T/C [19] of 77.3%, a viability, T/C [20] of 56.7% and a viability, T/C [21] of 41.4%. For the same compound, the viability, T/C [22] was 40%, the viability, T/C [23] was 33.2% and the viability, T/C [24] was 27.1%. The viability, T/C [25] was 68.8%, the viability, T/C [26] was 55.8% and the viability, T/C [27] was 49.4%. For the same compound, the viability, T/C [28] was 43.2%, the viability, T/C [29] was 36.5% and the viability, T/C [30] was 29.2%. For the same compound, the viability, T/C [31] was 70.6%, the viability, T/C [32] was 54.2% and the viability, T/C [33] was 48.8%. For the same compound, the viability, T/C [34] was 38.1%, the viability, T/C [35] was 36% and the viability, T/C [36] was 29%.

For CC[C@@]1(O)C(=O)OCc2c1cc1n(c2=O)Cc2cc3c(CN(C)C)c(O)ccc3nc2-1 + Nc1ccc(C#CCN(C(=O)Cc2ncc(C(F)(F)F)cc2C(F)(F)F)c2ccc(F)cc2)nn1, the IC50 (second compound 0.0316 µM) was over 100 nM, the IC50 (second compound 0.1 µM) was over 100 nM and the IC50 (second compound 0.316 µM) was over 100 nM. It also gave an IC50 (second compound 1 µM) of over 100 nM, an IC50 (second compound 3.16 µM) of over 100 nM and an IC50 (second compound 10 µM) of over 100 nM. It also gave a viability, T/C (second compound 0.0316 µM, first compound 0.000316 µM) of 91.3%, a viability, T/C (second compound 0.0316 µM, first compound 0.001 µM) of 89.7% and a viability, T/C (second compound 0.0316 µM, first compound 0.00316 µM) of 94.6%. It also gave a viability, T/C (second compound 0.0316 µM, first compound 0.01 µM) of 83.6%, a viability, T/C [1] of 77.8% and a viability, T/C [2] of 63.3%. The viability, T/C (second compound 0.1 µM, first compound 0.000316 µM) was 108%, the viability, T/C (second compound 0.1 µM, first compound 0.001 µM) was 93% and the viability, T/C (second compound 0.1 µM, first compound 0.00316 µM) was 89.4%. The viability, T/C (second compound 0.1 µM, first compound 0.01 µM) was 82%, the viability, T/C [7] was 72.2% and the viability, T/C [8] was 63%. The viability, T/C (second compound 0.316 µM, first compound 0.000316 µM) was 96.7%, the viability, T/C (second compound 0.316 µM, first compound 0.001 µM) was 101% and the viability, T/C (second compound 0.316 µM, first compound 0.00316 µM) was 93%. For the same compound, the viability, T/C (second compound 0.316 µM, first compound 0.01 µM) was 94.2%, the viability, T/C [13] was 77% and the viability, T/C [14] was 58.9%. The viability, T/C (second compound 1 µM, first compound 0.000316 µM) was 100%, the viability, T/C (second compound 1 µM, first compound 0.001 µM) was 91.7% and the viability, T/C (second compound 1 µM, first compound 0.00316 µM) was 85.2%. For the same compound, the viability, T/C (second compound 1 µM, first compound 0.01 µM) was 85.3%, the viability, T/C [19] was 84.3% and the viability, T/C [20] was 54.7%. It also gave a viability, T/C (second compound 3.16 µM, first compound 0.000316 µM) of 98%, a viability, T/C (second compound 3.16 µM, first compound 0.001 µM) of 102% and a viability, T/C (second compound 3.16 µM, first compound 0.00316 µM) of 98.5%. The viability, T/C (second compound 3.16 µM, first compound 0.01 µM) was 83.2%, the viability, T/C [25] was 85.1% and the viability, T/C [26] was 59%. For the same compound, the viability, T/C (second compound 10 µM, first compound 0.000316 µM) was 98.5%, the viability, T/C (second compound 10 µM, first compound 0.001 µM) was 87.2% and the viability, T/C (second compound 10 µM, first compound 0.00316 µM) was 98.8%. For the same compound, the viability, T/C (second compound 10 µM, first compound 0.01 µM) was 98.8%, the viability, T/C [31] was 81.1% and the viability, T/C [32] was 63%.

With COc1cc(C2c3cc4c(cc3C(OC3OC5COC(C)OC5C(O)C3O)C3COC(=O)C23)OCO4)cc(OC)c1O (stereo unspecified) + Nc1ccc(C#CCN(C(=O)Cc2ncc(C(F)(F)F)cc2C(F)(F)F)c2ccc(F)cc2)nn1 the IC50 (second compound 0.0316 µM) was over 10000 nM, the IC50 (second compound 0.1 µM) was over 10000 nM and the IC50 (second compound 0.316 µM) was over 10000 nM. For the same compound, the IC50 (second compound 1 µM) was over 10000 nM, the IC50 (second compound 3.16 µM) was over 10000 nM and the IC50 (second compound 10 µM) was over 10000 nM. For the same compound, the viability, T/C [1] was 107%, the viability, T/C [2] was 86.6% and the viability, T/C [3] was 87.4%. For the same compound, the viability, T/C [4] was 71%, the viability, T/C [5] was 57.8% and the viability, T/C [6] was 55%. For the same compound, the viability, T/C [7] was 104%, the viability, T/C [8] was 89.4% and the viability, T/C [9] was 82.2%. The viability, T/C [10] was 69.4%, the viability, T/C [11] was 61.1% and the viability, T/C [12] was 53.2%. For the same compound, the viability, T/C [13] was 103%, the viability, T/C [14] was 87.2% and the viability, T/C [15] was 76.1%. For the same compound, the viability, T/C [16] was 66.3%, the viability, T/C [17] was 58.2% and the viability, T/C [18] was 50.6%. It also gave a viability, T/C [19] of 89.7%, a viability, T/C [20] of 85.7% and a viability, T/C [21] of 76.9%. The viability, T/C [22] was 69.6%, the viability, T/C [23] was 53.9% and the viability, T/C [24] was 53.5%. The viability, T/C [25] was 87.8%, the viability, T/C [26] was 87.9% and the viability, T/C [27] was 82.6%. For the same compound, the viability, T/C [28] was 81%, the viability, T/C [29] was 56.1% and the viability, T/C [30] was 50.9%. For the same compound, the viability, T/C [31] was 95.1%, the viability, T/C [32] was 94.3% and the viability, T/C [33] was 82.4%. The viability, T/C [34] was 74.1%, the viability, T/C [35] was 62.8% and the viability, T/C [36] was 52.4%.
